Assay results from patent US9877978B2, “Compositions comprising NDGA derivatives and sorafenib and their use in treatment of cancer” (THE JOHNS HOPKINS UNIVERSITY, priority 2012, dated 2018).
Read-outs that look alike come from different tables or passages of the source.

How the values were obtained:
[1] = system: HepG2 human HCC cells; experiment: MTT cytotoxicity assay with median-effect / combination index analysis; type: cell-based; conditions: for DRI value at ED75 / DRI value at ED90 / DRI value at ED95: single agent vs combination; for IC50: Homo sapiens
Method: Cytotoxicity assay. […] M4N was used at concentrations between 0 and 80 μM. For the combination of M4N and sorafenib a constant molar ratio of 2:1 (M4N:sorafenib) was used. Twenty four hours after drug addition, cytotoxicity was assessed with the MTT assay with […] measured with a Power Wave 200 microplate reader.
Evaluation of drug interactions. The combination index (CI) isobologram method of Chou and Talalay, which is based on the median-effect principle, was used to calculate synergism or antagonism for the combined drug effects. Dose-effect curves for the two drugs, singly and in combination, in serially diluted concentrations were plotted using the median-effect equation and plot and the CI equation and plot. CI values at different effect and dose levels and isobolograms were generated automatically using the computer software CompuSyn. With this method, additive, synergistic, or antagonistic effects are indicated by CI values of 1, <1, and >1, respectively. Comparison of the ratio of doses required to reach a given effect level for each single drug and the drugs in combination was used to determine the dose-reduction.

[2] = system: caspase activation (procaspases 9, 4 and 7, caspase 3) in AsPc-1 human pancreatic carcinoma cells; experiment: Western immunoblot analysis of caspase activation; type: cell-based; conditions: for caspase activation (procaspase cleavage): 80 μM M4N, 40 μM sorafenib (FIG. 17); for caspase 3 activation: after 18 h of treatment
Method: Western immunoblot analysis. Treated and control cells were washed with PBS and suspended in RIPA buffer (150 mM NaCl, 50 mM Tris-HCL (pH8.0), 0.1% SDS, 1% NP40, and 0.5% deoxycholate) supplemented with protease inhibitor cocktail. After a 20 min incubation on ice, the suspension was centrifuged to clear the solubilized proteins. Bradford protein assay were performed and samples containing equivalent amounts of protein were resolved by standard SDS-polyacrylamide gel electrophoresis and transferred to nirocellulose membrane. The membranes were blocked with skim milk, and incubated with primary antibodies at 4° C. overnight and then with secondary antibody conjugated with horse radish peroxidase at room temperature for 1 h. The signals were detected by western blot chemiluminescence detection reagent.

[3] = HepG2, concurrent administration of M4N

Row | SMILES | DRI value at ED75 ([1]; HepG2, 24 h) | DRI value at ED90 ([1]; HepG2, 24 h) | DRI value at ED95 ([1]; HepG2, 24 h) | IC50 ([1]; HepG2, 24-Hour Treatment, combination at constant molar ratio 2:1 (M4N:sorafenib), read-out: Dm, median effect dose (concentration that inhibits cell growth by 50%)) [µM] | caspase activation (procaspase cleavage) [2] | caspase 3 activation [2] | DRI: decrease of concentration necessary to inhibit growth of 50% of cells (ED50) [1, 3] | DRI: decrease of concentration necessary to inhibit growth of 75% of cells (ED75) [1, 3] | DRI: decrease of concentration necessary to inhibit growth of 95% of cells (ED95) [1, 3] | IC50 ([1]; HepG2, after 24 h of treatment (FIG. 4), read-out: IC50 against HepG2 cells) [µM] | cytotoxic effect ([1]; sorafenib 20 μM alone, HepG2, 24 h) [%]
1 | COc1ccc(C[C@@H](C)[C@@H](C)Cc2ccc(OC)c(OC)c2)cc1OC [M4N, tetra-O-methyl nordihydroguaiaretic acid] | 3.15 | 1.75 | 1.17 | 283 | little effect on caspase activation | neither drug nor their combination had an effect | – | – | – | – | –
2 | CNC(=O)c1cc(Oc2ccc(NC(=O)Nc3ccc(Cl)c(C(F)(F)F)c3)cc2)ccn1 [sorafenib] | 92815.6 | 489945.0 | 1519041 | – | decreased levels of procaspases 9, 4 and 7 | neither drug nor their combination had an effect | 17,583.1 fold | 92,815.6 fold | 151,9041 fold | ~30 | ~20
